Reference: PubChem BioAssay (NCI)
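48-hour exposure; five concentrations; linearly interpolated endpoints. GI50 is the concentration that inhibits growth by half. TGI: total growth inhibition.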

Experiments:
Assay in all cases: DTP human tumour cell line panel, 48 h
[1] = tested on: NCI-H460 lung
[2] = tested on: MDA-MB-435
[3] = tested on: A549 NSCLC
[4] = tested on: HCT-116 colon
[5] = tested on: U251 CNS
[6] = tested on: SK-MEL-28 melanoma
[7] = tested on: SR leukemia
[8] = tested on: UACC-257 melanoma
[9] = tested on: NCI-H23 lung
[10] = tested on: OVCAR-5 ovarian
[11] = tested on: UO-31 renal
[12] = tested on: SF-295 CNS
[13] = tested on: HOP-62 NSCLC
[14] = tested on: HT29 colon
[15] = tested on: OVCAR-8 ovarian
[16] = tested on: CCRF-CEM leukemia
[17] = tested on: KM12 colon
[18] = tested on: HL-60(TB) leukemia
[19] = tested on: ACHN renal
[20] = tested on: MOLT-4 leukemia
[21] = tested on: COLO 205 colon
[22] = tested on: M14 melanoma
[23] = tested on: OVCAR-4 ovarian
[24] = tested on: SNB-75 CNS
[25] = tested on: 786-0 renal
[26] = tested on: HCT-15 colon
[27] = tested on: K-562 leukemia
[28] = tested on: SK-MEL-5 melanoma
[29] = tested on: SK-MEL-2 melanoma
[30] = tested on: HOP-92 NSCLC
[31] = tested on: NCI/ADR-RES ovarian
[32] = tested on: SW-620 colon
[33] = tested on: SNB-19 CNS
[34] = tested on: LOX IMVI melanoma
[35] = tested on: BT-549 breast
[36] = tested on: UACC-62 melanoma
[37] = tested on: SF-539 CNS
[38] = tested on: RPMI-8226 leukemia
[39] = tested on: MDA-N
[40] = tested on: SK-OV-3 ovarian
[41] = tested on: MDA-MB-231 breast
[42] = tested on: PC-3 prostate
[43] = tested on: HS 578T breast
[44] = tested on: SN12C renal
[45] = tested on: OVCAR-3 ovarian
[46] = tested on: MCF7 breast
[47] = tested on: NCI-H226 lung
[48] = tested on: NCI-H522 lung
[49] = tested on: A498 renal
[50] = tested on: HCC-2998 colon
[51] = tested on: TK-10 renal
[52] = tested on: RXF 393 renal
[53] = tested on: SF-268 CNS
[54] = tested on: T-47D breast
[55] = tested on: IGROV1 ovarian
[56] = tested on: MALME-3M melanoma
[57] = tested on: CAKI-1 renal
[58] = tested on: DU-145 prostate
[59] = tested on: EKVX NSCLC

CN1CCC2(CC1)SSC1(CCN(C)CC1)S2
TGI [1]: > 100 µM
TGI [2]: > 100 µM
TGI [3]: > 100 µM
TGI [4]: > 100 µM
TGI [5]: > 100 µM
TGI [6]: > 100 µM
TGI [7]: > 100 µM
TGI [8]: > 100 µM
TGI [9]: > 100 µM
TGI [10]: > 100 µM
TGI [11]: > 100 µM
TGI [12]: > 100 µM
TGI [13]: > 100 µM
TGI [14]: > 100 µM
TGI [15]: > 100 µM
TGI [16]: > 100 µM
TGI [17]: > 100 µM
TGI [18]: > 100 µM
TGI [19]: > 100 µM
TGI [20]: > 100 µM
TGI [21]: > 100 µM
TGI [22]: > 100 µM
TGI [23]: > 100 µM
TGI [24]: > 100 µM
TGI [25]: > 100 µM
TGI [26]: > 100 µM
TGI [27]: > 100 µM
TGI [28]: > 100 µM
TGI [29]: > 100 µM
TGI [30]: > 100 µM
TGI [31]: > 100 µM
TGI [32]: > 100 µM
TGI [33]: > 100 µM
TGI [34]: > 100 µM
TGI [35]: > 100 µM
TGI [36]: > 100 µM
TGI [37]: > 100 µM
TGI [38]: > 100 µM
TGI [39]: > 100 µM
TGI [40]: > 100 µM
TGI [41]: > 100 µM
TGI [42]: > 100 µM
TGI [43]: > 100 µM
TGI [44]: > 100 µM

Cc1c(Cn2c(C)nc3c(C(=O)O)cc(N4CCOCC4)cc32)cccc1C(F)(F)F
GI50 [1]: 40 µM
TGI [1]: > 100 µM
GI50 [2]: 66 µM
TGI [2]: > 100 µM
GI50 [3]: 54.3 µM
TGI [3]: > 100 µM
GI50 [45]: 52.3 µM
TGI [45]: > 100 µM
GI50 [4]: 42.1 µM
TGI [4]: > 100 µM
GI50 [5]: 49.5 µM
TGI [5]: > 100 µM
GI50 [6]: > 100 µM
TGI [6]: > 100 µM
GI50 [46]: 42.7 µM
TGI [46]: > 100 µM
GI50 [7]: 51.3 µM
TGI [7]: > 100 µM
GI50 [47]: 67.2 µM
TGI [47]: > 100 µM
GI50 [8]: 61.1 µM
TGI [8]: > 100 µM
GI50 [9]: 81.5 µM
TGI [9]: > 100 µM
GI50 [10]: 81.7 µM
TGI [10]: > 100 µM
GI50 [11]: 3.46 µM
TGI [11]: > 67.6 µM
GI50 [48]: 89 µM
TGI [48]: > 100 µM
GI50 [49]: 0.0339 µM
TGI [49]: 0.319 µM
GI50 [12]: 11 µM
TGI [12]: > 84.4 µM
GI50 [50]: 72.4 µM
TGI [50]: > 100 µM
GI50 [13]: 37.5 µM
TGI [13]: > 100 µM
GI50 [14]: 57.3 µM
TGI [14]: > 100 µM
GI50 [15]: 33.7 µM
TGI [15]: > 100 µM
GI50 [51]: 34 µM
TGI [51]: > 100 µM
GI50 [16]: 44.3 µM
TGI [16]: > 100 µM
GI50 [52]: 0.719 µM
TGI [52]: > 63.4 µM
GI50 [17]: 56.7 µM
TGI [17]: > 100 µM
GI50 [18]: 72.9 µM
TGI [18]: > 100 µM
GI50 [19]: 8.73 µM
TGI [19]: > 100 µM
GI50 [20]: 56.6 µM
TGI [20]: > 100 µM
GI50 [21]: 49.2 µM
TGI [21]: > 100 µM
GI50 [22]: 37.1 µM
TGI [22]: > 100 µM
GI50 [23]: 42.4 µM
TGI [23]: > 100 µM
GI50 [53]: 56 µM
TGI [53]: > 100 µM
GI50 [24]: 12.3 µM
TGI [24]: > 100 µM
GI50 [25]: 24.7 µM
TGI [25]: > 100 µM
GI50 [26]: 4.58 µM
TGI [26]: > 100 µM
GI50 [54]: 36.7 µM
TGI [54]: > 100 µM
GI50 [27]: > 77.2 µM
TGI [27]: > 100 µM
GI50 [28]: 47.1 µM
TGI [28]: > 100 µM
GI50 [29]: 96.9 µM
TGI [29]: > 100 µM
GI50 [30]: 14.1 µM
TGI [30]: > 100 µM
GI50 [31]: 4.99 µM
TGI [31]: 40.6 µM
GI50 [32]: 45.5 µM
TGI [32]: > 100 µM
GI50 [33]: > 100 µM
TGI [33]: > 100 µM
GI50 [34]: 60.7 µM
TGI [34]: > 100 µM
GI50 [35]: 25.8 µM
TGI [35]: > 100 µM
GI50 [55]: 40.2 µM
TGI [55]: > 100 µM
GI50 [36]: 21.1 µM
TGI [36]: > 100 µM
GI50 [37]: 72.6 µM
TGI [37]: > 100 µM
GI50 [38]: 64.8 µM
TGI [38]: > 100 µM
GI50 [56]: > 69.7 µM
TGI [56]: > 100 µM
GI50 [57]: 7.44 µM
TGI [57]: > 100 µM
GI50 [40]: 77.5 µM
TGI [40]: > 100 µM
GI50 [58]: > 92.9 µM
TGI [58]: > 100 µM
GI50 [41]: > 100 µM
TGI [41]: > 100 µM
GI50 [42]: 6.38 µM
TGI [42]: > 100 µM
GI50 [43]: 50.5 µM
TGI [43]: > 100 µM
GI50 [44]: 41.5 µM
TGI [44]: > 100 µM

CC1C(C)(C)C23CC12C1(OCCO1)C3Br (stereo not drawn)
TGI [1]: > 100 µM
TGI [2]: > 100 µM
TGI [3]: > 100 µM
TGI [45]: > 100 µM
TGI [4]: > 100 µM
TGI [5]: > 100 µM
TGI [6]: > 100 µM
TGI [46]: > 100 µM
TGI [7]: > 100 µM
TGI [47]: > 100 µM
TGI [59]: > 100 µM
TGI [8]: > 100 µM
TGI [9]: > 100 µM
TGI [10]: > 100 µM
TGI [11]: > 100 µM
TGI [49]: > 100 µM
TGI [12]: > 100 µM
TGI [50]: > 100 µM
TGI [13]: > 100 µM
TGI [14]: > 100 µM
TGI [15]: > 100 µM
TGI [51]: > 100 µM
TGI [16]: > 100 µM
TGI [52]: > 100 µM
TGI [17]: > 100 µM
TGI [18]: > 100 µM
TGI [19]: > 100 µM
TGI [20]: > 100 µM
TGI [21]: > 100 µM
TGI [22]: > 100 µM
TGI [23]: > 100 µM
TGI [53]: > 100 µM
TGI [24]: > 100 µM
TGI [25]: > 100 µM
TGI [26]: > 100 µM
TGI [27]: > 100 µM
TGI [28]: > 100 µM
TGI [31]: > 100 µM
TGI [32]: > 100 µM
TGI [33]: > 100 µM
TGI [34]: > 100 µM
TGI [35]: > 100 µM
TGI [55]: > 100 µM
TGI [36]: > 100 µM
TGI [37]: > 100 µM
TGI [38]: > 100 µM
TGI [56]: > 100 µM
TGI [39]: > 100 µM
TGI [57]: > 100 µM
TGI [40]: > 100 µM
TGI [58]: > 100 µM
TGI [41]: > 100 µM
TGI [42]: > 100 µM
TGI [43]: > 100 µM
TGI [44]: > 100 µM
